Experimental data reported in PubChem BioAssay AID330 (DTP/NCI, 2004).
Where “and” joins values, the source holds several entries; their conditions need not be identical. Equal values may be shown once. Toxic doses and inconclusive results are not listed.

Tested on: P388 leukemia ip, CD2F1 mice, survival T/C
Test: NCI In Vivo Anticancer Drug Screen. Data for tumor model P388 Leukemia (intraperitoneal) in CD2F1 (CDF1) mice
Conditions: endpoint: median survival time, higher = longer survival
Method in brief: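 Mice carrying the transplanted tumor received test compound or vehicle. Survival was recorded in each group, and the value is the treated-group measurement divided by that of the vehicle-treated control group.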

[1] = dose: 50.0 mg/kg/injection, schedule: Q01DX005 (ip), vehicle: saline
[2] = dose: 60.0 mg/kg/injection, schedule: Q01DX005 (ip), vehicle: saline with Tween-80
[3] = dose: 120.0 mg/kg/injection, schedule: Q01DX005 (ip), vehicle: saline with Tween-80
[4] = dose: 60.0 mg/kg/injection, schedule: Q01DX005 (ip), vehicle: saline
[5] = dose: 120.0 mg/kg/injection, schedule: Q01DX005 (ip), vehicle: saline
[6] = dose: 50.0 mg/kg/injection, schedule: Q01DX005 (ip), vehicle: Klucel (hydroxypropylcellulose) (HPC)
[7] = dose: 100.0 mg/kg/injection, schedule: Q01DX005 (ip), vehicle: Klucel (hydroxypropylcellulose) (HPC)
[8] = dose: 200.0 mg/kg/injection, schedule: Q01DX005 (ip), vehicle: Klucel (hydroxypropylcellulose) (HPC)
[9] = dose: 25.0 mg/kg/injection, schedule: Q01DX005 (ip), vehicle: Klucel (hydroxypropylcellulose) (HPC)
[10] = dose: 50.0 mg/kg/injection, schedule: Q01DX005 (ip), vehicle: saline with Tween-80
[11] = dose: 100.0 mg/kg/injection, schedule: Q01DX005 (ip), vehicle: saline with Tween-80
[12] = dose: 200.0 mg/kg/injection, schedule: Q01DX005 (ip), vehicle: saline with Tween-80
[13] = dose: 240.0 mg/kg/injection, schedule: Q01DX005 (ip), vehicle: saline
[14] = dose: 6.25 mg/kg/injection, schedule: Q01DX009 (ip), vehicle: saline
[15] = dose: 12.5 mg/kg/injection, schedule: Q01DX009 (ip), vehicle: saline
[16] = dose: 25.0 mg/kg/injection, schedule: Q01DX009 (ip), vehicle: saline with Tween-80
[17] = dose: 50.0 mg/kg/injection, schedule: Q01DX009 (ip), vehicle: saline with Tween-80
[18] = dose: 100.0 mg/kg/injection, schedule: Q01DX009 (ip), vehicle: saline with Tween-80

SMILES: N#Cc1c(-c2ccc(Cl)cc2)c(-c2ccc(Cl)cc2)nn(CCOC(=O)CN)c1=O
- T/C (dose: 3.13 mg/kg/injection, schedule: Q01DX005 (ip), vehicle: distilled water + Tween-80): 99 % of control and 100 % of control
- T/C (dose: 6.25 mg/kg/injection, schedule: Q01DX005 (ip), vehicle: distilled water + Tween-80): 100 % of control and 103 % of control
- T/C (dose: 12.5 mg/kg/injection, schedule: Q01DX005 (ip), vehicle: distilled water + Tween-80): 105 % of control and 115 % of control and 97 % of control
- T/C (dose: 12.5 mg/kg/injection, schedule: Q04DX002 (ip), vehicle: distilled water + Tween-80): 103 % of control
- T/C (dose: 25.0 mg/kg/injection, schedule: Q01DX005 (ip), vehicle: distilled water + Tween-80): 108 % of control and 120 % of control (2×)
- T/C (dose: 25.0 mg/kg/injection, schedule: Q04DX002 (ip), vehicle: distilled water + Tween-80): 111 % of control and 112 % of control
- T/C (dose: 50.0 mg/kg/injection, schedule: Q01DX005 (ip), vehicle: distilled water + Tween-80): 155 % of control
- T/C [1]: 116 % of control

SMILES: COc1ccc(C)cc1C(=C=C=C=C(c1cc(C)ccc1OC)c1ccccc1OCc1ccccc1)c1ccccc1OCc1ccccc1
- T/C (dose: 25.0 mg/kg/injection, schedule: Q01DX009 (ip), vehicle: Klucel (hydroxypropylcellulose) (HPC)): 101 % of control
- T/C (dose: 50.0 mg/kg/injection, schedule: Q01DX009 (ip), vehicle: Klucel (hydroxypropylcellulose) (HPC)): 100 % of control
- T/C (dose: 100.0 mg/kg/injection, schedule: Q01DX009 (ip), vehicle: Klucel (hydroxypropylcellulose) (HPC)): 93 % of control

SMILES: C(/C=C/c1ccccc1)=C1SCCCS1
- T/C (dose: 100.0 mg/kg/injection, schedule: Q04DX003 (ip), vehicle: saline with Tween-80): 94 % of control
- T/C (dose: 200.0 mg/kg/injection, schedule: Q04DX003 (ip), vehicle: saline with Tween-80): 103 % of control
- T/C (dose: 400.0 mg/kg/injection, schedule: Q04DX003 (ip), vehicle: saline with Tween-80): 90 % of control

SMILES: COc1cccc(C(c2cc3c(cc2O)OCO3)N2CCOCC2)c1OC (stereo not drawn)
- T/C [2]: 119 % of control
- T/C [3]: 119 % of control
- T/C (dose: 240.0 mg/kg/injection, schedule: Q01DX005 (ip), vehicle: saline with Tween-80): 117 % of control

SMILES: CC(CN(CC(=O)O)CC(=O)O)N(CC(=O)O)CC(=O)O.[Cl][Pd][Cl] (stereo not drawn)
- T/C [4]: 94 % of control
- T/C [5]: 91 % of control

SMILES: Cc1cccc(CO)c1-c1c(C)cccc1CO
- T/C [6]: 101 % of control
- T/C [7]: 108 % of control
- T/C [8]: 100 % of control

SMILES: C=C1C(=O)OC2/C=C(\C)C(OC(C)=O)C/C=C(\C)CC(OC(=O)/C(=C/CO)CO)C12 (stereo not drawn)
- T/C (dose: 100.0 mg/kg/injection, schedule: Q01DX001 (ip), vehicle: Klucel (hydroxypropylcellulose) (HPC)): 99 % of control
- T/C (dose: 200.0 mg/kg/injection, schedule: Q01DX001 (ip), vehicle: Klucel (hydroxypropylcellulose) (HPC)): 99 % of control
- T/C (dose: 400.0 mg/kg/injection, schedule: Q01DX001 (ip), vehicle: Klucel (hydroxypropylcellulose) (HPC)): 123 % of control

SMILES: CCOC(=O)Nc1nc2ccccc2n1CN1CCN(c2ccccc2)CC1
- T/C [9]: 92 % of control
- T/C [6]: 95 % of control
- T/C [7]: 100 % of control

SMILES: CC(c1ccc(OCc2ccccc2)cc1)c1cc2c(cc1OCCO)OCO2 (stereo not drawn)
- T/C [10]: 98 % of control
- T/C [11]: 100 % of control
- T/C [12]: 100 % of control

SMILES: CC(=O)N1CCCN(C)/C1=N/[N+](=O)[O-]
- T/C [4]: 103 % of control
- T/C [5]: 100 % of control
- T/C [13]: 108 % of control

SMILES: CC1(C)CC(=O)C([Se]C2=C(O)CC(C)(C)CC2=O)=C(O)C1
- T/C [14]: 101 % of control
- T/C [15]: 104 % of control
- T/C (dose: 25.0 mg/kg/injection, schedule: Q01DX009 (ip), vehicle: saline): 111 % of control

SMILES: O=C(O)CCc1cc(Br)no1
- T/C (dose: 50.0 mg/kg/injection, schedule: Q01DX009 (ip), vehicle: saline): 101 % of control
- T/C (dose: 100.0 mg/kg/injection, schedule: Q01DX009 (ip), vehicle: saline): 93 % of control
- T/C (dose: 200.0 mg/kg/injection, schedule: Q01DX009 (ip), vehicle: saline): 93 % of control

SMILES: Cc1ccc(S(=O)(=O)N(Cc2ccccc2)S(=O)(=O)c2ccc(C)cc2)cc1
- T/C [16]: 110 % of control
- T/C [17]: 118 % of control
- T/C [18]: 101 % of control

SMILES: Cc1cc(N(C)C)cc(C)c1N=Nc1cc[n+]([O-])cc1
- T/C [16]: 95 % of control
- T/C [17]: 94 % of control
- T/C [18]: 103 % of control
- T/C (dose: 200.0 mg/kg/injection, schedule: Q01DX009 (ip), vehicle: saline with Tween-80): 95 % of control

SMILES: C/C(=N\N=N\c1ccc(C)s1)c1ccccc1
- T/C (dose: 50.0 mg/kg/injection, schedule: Q01DX005 (ip), vehicle: Klucel + Tween-80): 105 % of control
- T/C (dose: 100.0 mg/kg/injection, schedule: Q01DX005 (ip), vehicle: Klucel + Tween-80): 105 % of control
- T/C (dose: 200.0 mg/kg/injection, schedule: Q01DX005 (ip), vehicle: Klucel + Tween-80): 97 % of control

SMILES: FC(F)(F)C1(C(F)(F)F)SC(C(F)(F)F)(C(F)(F)F)S1
- T/C [1]: 104 % of control
- T/C (dose: 100.0 mg/kg/injection, schedule: Q01DX005 (ip), vehicle: saline): 107 % of control
- T/C (dose: 200.0 mg/kg/injection, schedule: Q01DX005 (ip), vehicle: saline): 104 % of control

SMILES: CC(C)(C)C1(C(C)(C)C)CO1
- T/C [14]: 98 % of control
- T/C [15]: 96 % of control

SMILES: ClCCN(CCCl)c1ccc(/C=N/Nc2c3c(nc4ccccc24)CCCC3)cc1
- T/C (dose: 0.39 mg/kg/injection, schedule: Q01DX009 (ip), vehicle: Klucel (hydroxypropylcellulose) (HPC)): 95 % of control
- T/C (dose: 0.78 mg/kg/injection, schedule: Q01DX009 (ip), vehicle: Klucel (hydroxypropylcellulose) (HPC)): 108 % of control
- T/C (dose: 1.56 mg/kg/injection, schedule: Q01DX009 (ip), vehicle: Klucel (hydroxypropylcellulose) (HPC)): 95 % of control
- T/C (dose: 12.5 mg/kg/injection, schedule: Q01DX009 (ip), vehicle: Klucel (hydroxypropylcellulose) (HPC)): 90 % of control

SMILES: Cl[C](Cl)(Cl)[Hg][C](Cl)(Cl)Cl
- T/C (dose: 1.56 mg/kg/injection, schedule: Q01DX009 (ip), vehicle: saline with Tween-80): 95 % of control
- T/C (dose: 3.12 mg/kg/injection, schedule: Q01DX009 (ip), vehicle: saline with Tween-80): 90 % of control and 96 % of control
- T/C (dose: 6.25 mg/kg/injection, schedule: Q01DX009 (ip), vehicle: saline with Tween-80): 87 % of control

SMILES: c1ccc(-c2nnc3sc4ccccc4n23)cc1
- T/C (dose: 60.0 mg/kg/injection, schedule: Q01DX005 (ip), vehicle: Klucel (hydroxypropylcellulose) (HPC)): 105 % of control
- T/C (dose: 120.0 mg/kg/injection, schedule: Q01DX005 (ip), vehicle: Klucel (hydroxypropylcellulose) (HPC)): 96 % of control
- T/C (dose: 240.0 mg/kg/injection, schedule: Q01DX005 (ip), vehicle: Klucel (hydroxypropylcellulose) (HPC)): 94 % of control

SMILES: COc1ccc(C(=O)/C(C)=C(/C)N)c(OCc2ccccc2)c1OC
- T/C [6]: 104 % of control
- T/C [7]: 94 % of control
- T/C [8]: 105 % of control

SMILES: COc1ccccc1N/N=c1/c2n(-c3ccc(Cl)cc3)c(=S)n(-c3ccccn3)c1=NCCN=2
- T/C (dose: 12.5 mg/kg/injection, schedule: Q01DX005 (ip), vehicle: saline with Tween-80): 97 % of control
- T/C (dose: 25.0 mg/kg/injection, schedule: Q01DX005 (ip), vehicle: saline with Tween-80): 100 % of control
- T/C [10]: 102 % of control and 94 % of control

SMILES: CSc1nc(NC2OCC(OC(C)=O)C(OC(C)=O)C2OC(C)=O)c(N=C(C)C(C)=O)c(=O)n1C (stereo not drawn)
- T/C [2]: 100 % of control
- T/C [3]: 87 % of control

SMILES: O=C1NC(=O)C2(CCCc3ccccc32)N1 (stereo not drawn)
- T/C [6]: 101 % of control
- T/C [10]: 97 % of control
- T/C [7]: 104 % of control
- T/C [11]: 94 % of control
- T/C [8]: 104 % of control
- T/C [12]: 94 % of control

SMILES: Cc1cc(=Nc2ccc3c(c2)c(N)cc(C)[n+]3C)nc(N)n1C
- T/C (dose: 6.25 mg/kg/injection, schedule: Q01DX005 (ip), vehicle: Klucel (hydroxypropylcellulose) (HPC)): 107 % of control
- T/C (dose: 12.5 mg/kg/injection, schedule: Q01DX005 (ip), vehicle: Klucel (hydroxypropylcellulose) (HPC)): 107 % of control
- T/C [9]: 104 % of control

SMILES: O=C1CC(=O)C(C(=O)c2ccccc2)N1 (stereo not drawn)
- T/C [10]: 96 % of control
- T/C [11]: 97 % of control
- T/C [12]: 94 % of control

SMILES: CCC12CCCN3CCC4(c5cccc(O)c5NC4CC1)C32 (stereo not drawn)
- T/C [4]: 101 % of control
- T/C [5]: 94 % of control
- T/C [13]: 101 % of control
